Measured values reported in the METLIN SMRT retention time set (Domingo-Almenara et al. 2019).

Assay: gradient 5% acetonitrile 3 min, to 50% in 2 min, to 85% in 15 min, held 3 min, 100 µL/min
Details: column: Zorbax Extend-C18 2.1 x 50 mm; eluents: water / acetonitrile, 0.1% formic acid
Procedure, shortened: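 Retention time was recorded from adduct peaks, which were picked computationally and each inspected manually. Pure standards ran in mixtures of ~100 molecules on HPLC coupled to a quadrupole time-of-flight mass spectrometer, in positive and negative ionization mode, through a Zorbax Extend-C18 column (2.1 × 50 mm, 1.8 μm) at 100 μL/min. Eluents were water and acetonitrile, each with 0.1% formic acid.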

COc1cccc(CN2CCC(N3C[C@H](OC)[C@@H]3c3cccnc3)CC2)n1
RP-LC retention time: 504 s

Cc1cc(NC(=O)C(=O)NCC2(c3cccs3)CC2)no1
RP-LC retention time: 802 s

COc1ccccc1-c1noc(-c2nnn3c2COC(c2ccc(C)cc2C)C3)n1 (stereo not given)
RP-LC retention time: 1250 s

COc1ccc(NC(=O)Cn2nc(C(F)(F)F)c(Br)c2C)cc1OC
RP-LC retention time: 958 s

Cc1cnc(C2CCC2)n1CC1CCN(C(=O)Nc2ccc3c(c2)OCCO3)C1 (stereo not given)
RP-LC retention time: 609 s

CCN(CC)CCNC(=O)C1CCN(C2=NS(=O)(=O)C(c3ccc(C)c(C)c3)=C2C)CC1
RP-LC retention time: 666 s

COc1ccccc1N1CCN(CCNC(=O)Nc2ccc3c(c2)OCO3)CC1
RP-LC retention time: 569 s

O=C(CCc1c[nH]c2ccccc12)Nc1cccc(-c2nnc3n2CCCC3)c1
RP-LC retention time: 682 s

O=C(CN1CCCc2nc(C3CC3)ncc2C1=O)NC1CCCC1
RP-LC retention time: 673 s

COc1ccc(CNC(=O)c2ccc3c(=O)n(-c4cccc(OC)c4)c(N4CCCC4)nc3c2)cc1
RP-LC retention time: 833 s

O=C(Nc1ccc(-c2cn3cccnc3n2)cc1)c1cc(Br)ccc1Cl
RP-LC retention time: 707 s

O=C(Nc1ccc2c(c1)OCCO2)N1CCC(Oc2ccccc2)C1 (stereo not given)
RP-LC retention time: 639 s

Cc1cc(C)cc(C(=O)NC2CCN(c3cc(-c4ccccc4)[nH]n3)C2)c1 (stereo not given)
RP-LC retention time: 770 s

CCn1c(=O)c(NCc2ccc(C)c(C)c2)nc2ccncc21
RP-LC retention time: 672 s

CCc1cccc(NS(=O)(=O)c2cc3n(c2)CCCN(C)C3=O)c1
RP-LC retention time: 728 s

CCc1nnc(-c2cc(C)n(CC(=O)NC(C)c3ccccc3)c2C)o1 (stereo not given)
RP-LC retention time: 805 s

O=C(NC1CCCCC1)c1nc(-c2ccc(N3CCCC3)cc2)no1
RP-LC retention time: 1160 s

O=C(O)c1cnc(NCCc2cccs2)nc1-c1ccccn1
RP-LC retention time: 765 s

Cc1noc(C)c1C1CCCN1C(=O)c1ccc2c(c1)OCO2 (stereo not given)
RP-LC retention time: 722 s

CNC(=O)N1CCCN(C)c2ccccc21
RP-LC retention time: 484 s

Cc1cc(C(=O)N2CCC3(CCC3OCC(N)=O)CC2)c(C)o1 (stereo not given)
RP-LC retention time: 681 s

CCN1CCn2c(nc3cc(C(=O)NCc4ccccc4Br)ccc32)C1=O
RP-LC retention time: 707 s

Cc1ccc(C(=O)Nc2ccc3c(c2)CCC(=O)N3)s1
RP-LC retention time: 680 s

O=C(CN1C(=O)C2CCCCN2c2ccc(C(=O)N3CCCC3)cc21)NCC1COCCO1 (stereo not given)
RP-LC retention time: 627 s

Cc1ccc(-c2noc(CN3C(=O)COc4cc(Cl)ccc43)n2)cc1
RP-LC retention time: 1140 s

O=C(NCc1ccc(F)cc1Cl)C1CCc2nc(N3CCOCC3)ncc2C1 (stereo not given)
RP-LC retention time: 768 s

Cc1ccc(-c2[nH]ncc2CN)cc1C
RP-LC retention time: 586 s

O=C(Nc1ccc(Br)cc1F)c1ccc(-n2ccnc2)nn1
RP-LC retention time: 693 s

O=C(Cn1cccc(-c2nc(-c3ccccc3)no2)c1=O)Nc1ccccc1Br
RP-LC retention time: 898 s

O=C(Nc1cccnc1Cl)C1CCCN(c2ncnc3c2nc2n3CCCCC2)C1 (stereo not given)
RP-LC retention time: 717 s

CCC(=O)N1CCc2cc(N3CC(C(=O)NCc4ccccc4Cl)CC3=O)ccc21 (stereo not given)
RP-LC retention time: 744 s

CCCS(=O)(=O)N1CCc2[nH]nc(-c3ccccc3)c2C1
RP-LC retention time: 752 s

Cc1cccc(S(=O)(=O)N2C[C@H](c3nc(-c4ccncc4)no3)[C@@H](C)C2)c1
RP-LC retention time: 939 s

CCC(=O)Nc1ccc(-n2cnc(C(=O)N3CCN(c4cc(C)ccc4C)CC3)c2)nc1
RP-LC retention time: 863 s

O=C(Cc1ccc(F)cc1)NC1CCN(c2cc(-c3ccc(Cl)cc3)[nH]n2)C1 (stereo not given)
RP-LC retention time: 789 s

Cc1ccc(CNC(=O)c2ccc(CN3CCN(Cc4ccc(F)cc4)C(=O)C3=O)cc2)o1
RP-LC retention time: 823 s

Cn1cc(S(=O)(=O)N2CCC(C(=O)NCc3ccccn3)CC2)cc1C(=O)N1CCCC1
RP-LC retention time: 583 s

COc1ccc2oc(-c3noc(C4CC(=O)N(c5ccccc5)C4)n3)c(C)c2c1 (stereo not given)
RP-LC retention time: 1040 s

COCCN(CC(=O)N1CCc2sccc2C1COc1ccccc1OC)C(=O)C(C)C (stereo not given)
RP-LC retention time: 845 s

Cc1cccc(C(=O)Nc2c(C(=O)N3CCN(c4ccccn4)CC3)[nH]c3ccccc23)c1
RP-LC retention time: 613 s

Cc1oc(-c2[nH]ncc2C(=O)N(C)C)cc1S(=O)(=O)NCC(C)C
RP-LC retention time: 671 s

O=C(O)CCC(=O)Nc1cccc(C(F)(F)F)c1
RP-LC retention time: 674 s

O=C(Nc1ccc(Cl)cc1F)c1cnc(-c2ccccc2)nc1-c1ccncc1
RP-LC retention time: 982 s

COCCCNC(=O)C1(c2ccc(NC(=O)c3ccc(Br)cc3)cc2)CCC1
RP-LC retention time: 820 s

O=C(NCCc1ccccc1)C1CCN(C(=O)c2ncn3c2COC(c2ccc(Cl)cc2)C3)CC1 (stereo not given)
RP-LC retention time: 815 s
